This note sets out measurements from ChEMBL document CHEMBL1122274, “Inhibitors of glycolic acid oxidase. 4-substituted 2,4-dioxobutanoic acid derivatives” (J Med Chem, 1983).

A short description of data set [1]: Acidic dissociation constant (pKa) determined in 50% aqueous ethanol. In kind it is physicochemical.
The nature of data set [2]: Acidic dissociation constant (pKa) determined in 50% aqueous ethanol;ND is defined as no-data. In kind it is physicochemical.

What is called pKa is the pH at which an ionisable group is half protonated. In the case of `O=C(O)C(=O)CC(=O)c1ccc(-c2ccccc2)cc1`, the pKa in data set [1] and in data set [2] was 3.34 in each case.
